Reference: PMC6832352, “Synthesis and Glycosidase Inhibition of Broussonetine M and Its Analogues” (Molecules, 2019)

Key:
Assay type in all cases: biochemical
α-Galactosidase = molecular target: T1, α-Galactosidase (Coffea arabica, UniProt Q42656); assay: glycosidase inhibition assay, coffee beans α-galactosidase; settings: for IC50: α-Galactosidase, Coffee beans
T1 construct: purchased Sigma-Aldrich Chemical Co
Experimental: (§1) With rat intestinal maltase as an exception, other enzymes were purchased from Sigma-Aldrich Chemical Co. (St. Louis, Mo. USA). Brush border membranes prepared from rat small intestine according to the method of Kessler et al. were assayed at pH 6.8 for rat intestinal maltase using maltose. The released D-glucose was determined colorimetrically using the Glucose CII-test Wako (Wako Pure Chemical Ind.; Osaka, Japan). Other glycosidase activities were determined using an appropriate p-nitrophenyl glycoside as substrate in a buffer solution at the optimal pH value of each enzyme. The reaction was stopped by adding 400 mM Na2CO3. The released p-nitrophenol was measured spectrometrically at 400 nm.

α-Mannosidase = molecular target: T2, α-Mannosidase (Canavalia ensiformis, UniProt C0HJB3); assay: glycosidase inhibition assay, jack bean α-mannosidase
T2 construct: purchased Sigma-Aldrich Chemical Co
T2 sequence (C0HJB3 1-981): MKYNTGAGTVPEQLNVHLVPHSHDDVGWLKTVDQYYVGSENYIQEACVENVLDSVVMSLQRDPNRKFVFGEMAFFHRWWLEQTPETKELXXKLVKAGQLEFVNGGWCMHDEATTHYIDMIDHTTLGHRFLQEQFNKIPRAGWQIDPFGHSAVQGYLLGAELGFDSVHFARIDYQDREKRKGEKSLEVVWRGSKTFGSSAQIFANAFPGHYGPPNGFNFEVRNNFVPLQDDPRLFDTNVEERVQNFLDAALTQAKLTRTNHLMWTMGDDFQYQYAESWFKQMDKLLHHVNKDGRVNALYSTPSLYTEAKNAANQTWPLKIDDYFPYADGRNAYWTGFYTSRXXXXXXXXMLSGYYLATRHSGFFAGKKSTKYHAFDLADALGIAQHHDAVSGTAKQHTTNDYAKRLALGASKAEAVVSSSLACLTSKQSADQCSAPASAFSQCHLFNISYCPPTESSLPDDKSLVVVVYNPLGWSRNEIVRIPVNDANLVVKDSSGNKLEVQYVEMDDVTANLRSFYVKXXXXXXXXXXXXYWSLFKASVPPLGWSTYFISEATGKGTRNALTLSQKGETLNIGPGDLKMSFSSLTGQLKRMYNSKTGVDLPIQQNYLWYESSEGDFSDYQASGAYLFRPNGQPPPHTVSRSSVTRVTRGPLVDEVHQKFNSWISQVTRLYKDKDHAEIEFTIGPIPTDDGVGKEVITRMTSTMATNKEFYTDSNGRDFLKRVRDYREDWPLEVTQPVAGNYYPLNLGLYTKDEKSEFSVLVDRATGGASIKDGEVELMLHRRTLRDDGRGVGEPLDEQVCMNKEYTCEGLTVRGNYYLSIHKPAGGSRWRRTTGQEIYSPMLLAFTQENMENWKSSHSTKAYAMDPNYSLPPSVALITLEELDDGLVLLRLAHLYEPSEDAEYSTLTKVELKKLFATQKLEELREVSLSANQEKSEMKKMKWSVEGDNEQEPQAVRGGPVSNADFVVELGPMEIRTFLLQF
Experimental: as §1

β-Mannosidase = assay: glycosidase inhibition assay, snail β-mannosidase; settings: for inhibition %: at 100 μM
Experimental: as §1

Amyloglucosidase = molecular target: T3, Amyloglucosidase (Aspergillus niger, UniProt P69328); assay: glycosidase inhibition assay, A. niger amyloglucosidase
T3 construct: purchased Sigma-Aldrich Chemical Co
Experimental: as §1

α-L-Rhamnosidase = molecular target: T4, α-L-Rhamnosidase (Penicillium decumbens, UniProt S7ZS15); assay: glycosidase inhibition assay, P. decumbens α-L-rhamnosidase
T4 sequence (S7ZS15 1-894): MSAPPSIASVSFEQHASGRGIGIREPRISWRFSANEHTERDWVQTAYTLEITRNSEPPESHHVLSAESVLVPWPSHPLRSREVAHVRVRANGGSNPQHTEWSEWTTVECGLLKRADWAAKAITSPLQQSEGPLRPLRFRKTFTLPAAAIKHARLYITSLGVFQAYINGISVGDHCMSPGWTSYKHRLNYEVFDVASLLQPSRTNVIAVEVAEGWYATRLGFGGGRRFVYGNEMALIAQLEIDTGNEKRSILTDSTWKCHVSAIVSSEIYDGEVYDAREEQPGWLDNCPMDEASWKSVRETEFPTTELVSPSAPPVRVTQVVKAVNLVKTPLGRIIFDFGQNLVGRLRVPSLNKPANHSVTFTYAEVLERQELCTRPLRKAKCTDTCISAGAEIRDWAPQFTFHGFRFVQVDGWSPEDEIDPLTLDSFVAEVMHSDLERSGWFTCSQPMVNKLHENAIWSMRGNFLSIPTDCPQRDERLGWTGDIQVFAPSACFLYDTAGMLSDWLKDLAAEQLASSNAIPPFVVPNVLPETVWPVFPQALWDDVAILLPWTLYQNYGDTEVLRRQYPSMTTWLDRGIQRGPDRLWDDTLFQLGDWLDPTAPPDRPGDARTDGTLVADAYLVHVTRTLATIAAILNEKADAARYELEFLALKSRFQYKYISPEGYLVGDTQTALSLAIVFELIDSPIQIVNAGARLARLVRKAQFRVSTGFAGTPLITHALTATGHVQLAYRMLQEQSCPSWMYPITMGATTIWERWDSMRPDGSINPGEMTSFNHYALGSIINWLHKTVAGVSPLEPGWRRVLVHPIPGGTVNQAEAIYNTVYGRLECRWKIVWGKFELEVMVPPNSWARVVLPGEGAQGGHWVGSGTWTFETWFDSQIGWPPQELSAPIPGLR
Experimental: as §1

β-Glucuronidase = molecular target: T5, β-Glucuronidase (Bos taurus, UniProt A3KMY8); assay: glycosidase inhibition assay, bovine liver β-glucuronidase; settings: for IC50: β-Glucuronidase, Bovine liver
T5 construct: purchased Sigma-Aldrich Chemical Co; host or cells: bovine liver
T5 sequence (A3KMY8 1-652): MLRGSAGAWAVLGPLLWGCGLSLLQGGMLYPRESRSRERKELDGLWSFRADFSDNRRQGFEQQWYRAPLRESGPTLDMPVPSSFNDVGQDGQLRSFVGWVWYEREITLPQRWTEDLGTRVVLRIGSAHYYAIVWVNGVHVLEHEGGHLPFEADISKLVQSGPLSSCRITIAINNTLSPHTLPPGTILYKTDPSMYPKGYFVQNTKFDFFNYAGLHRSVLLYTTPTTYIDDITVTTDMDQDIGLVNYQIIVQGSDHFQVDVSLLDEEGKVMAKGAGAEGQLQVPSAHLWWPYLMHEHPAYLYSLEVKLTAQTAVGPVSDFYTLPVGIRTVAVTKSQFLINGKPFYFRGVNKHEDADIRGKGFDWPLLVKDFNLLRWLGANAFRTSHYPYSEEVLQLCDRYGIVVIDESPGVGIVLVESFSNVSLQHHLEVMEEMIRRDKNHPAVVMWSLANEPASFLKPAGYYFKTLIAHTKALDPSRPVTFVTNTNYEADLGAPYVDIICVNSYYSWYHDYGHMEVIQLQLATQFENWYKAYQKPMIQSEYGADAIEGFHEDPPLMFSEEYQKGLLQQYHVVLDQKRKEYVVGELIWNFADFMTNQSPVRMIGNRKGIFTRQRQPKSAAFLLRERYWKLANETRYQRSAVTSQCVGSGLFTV
Experimental: as §1

T1 sequence (Q42656 16-378): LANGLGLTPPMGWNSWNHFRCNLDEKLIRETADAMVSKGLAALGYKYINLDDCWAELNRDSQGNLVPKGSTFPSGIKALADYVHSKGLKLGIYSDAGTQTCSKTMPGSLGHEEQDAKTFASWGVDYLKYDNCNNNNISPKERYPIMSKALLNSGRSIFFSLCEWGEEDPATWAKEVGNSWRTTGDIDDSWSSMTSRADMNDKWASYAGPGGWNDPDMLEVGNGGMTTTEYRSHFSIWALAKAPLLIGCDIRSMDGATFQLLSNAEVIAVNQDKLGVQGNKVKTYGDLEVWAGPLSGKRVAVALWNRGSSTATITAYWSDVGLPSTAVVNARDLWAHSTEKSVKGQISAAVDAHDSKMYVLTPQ
T3 sequence (P69328 25-640): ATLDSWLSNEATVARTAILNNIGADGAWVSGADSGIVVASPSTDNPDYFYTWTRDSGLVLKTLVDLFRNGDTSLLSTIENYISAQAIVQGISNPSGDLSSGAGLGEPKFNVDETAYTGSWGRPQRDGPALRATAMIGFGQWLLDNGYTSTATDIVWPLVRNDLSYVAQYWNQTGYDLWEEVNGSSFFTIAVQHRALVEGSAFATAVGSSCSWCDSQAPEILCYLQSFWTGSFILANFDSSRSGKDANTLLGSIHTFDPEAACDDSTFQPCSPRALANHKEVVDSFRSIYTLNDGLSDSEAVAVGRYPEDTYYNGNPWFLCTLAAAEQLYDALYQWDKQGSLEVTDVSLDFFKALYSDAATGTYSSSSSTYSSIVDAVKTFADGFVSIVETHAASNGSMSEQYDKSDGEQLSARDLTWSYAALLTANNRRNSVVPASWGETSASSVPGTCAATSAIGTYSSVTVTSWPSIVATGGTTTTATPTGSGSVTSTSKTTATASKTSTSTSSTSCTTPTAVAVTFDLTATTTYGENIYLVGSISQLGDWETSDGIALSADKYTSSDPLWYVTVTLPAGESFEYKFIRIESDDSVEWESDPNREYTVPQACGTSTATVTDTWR

| Compound | inhibition at 100 µM (α-Galactosidase) [%] | IC50 (α-Galactosidase) [µM] | IC50 (α-Mannosidase) [µM] | inhibition at 100 µM (α-Mannosidase) [%] | IC50 (β-Mannosidase) [µM] | inhibition % (β-Mannosidase) [%] | IC50 (Amyloglucosidase) [µM] | inhibition at 100 µM (Amyloglucosidase) [%] | inhibition at 100 µM (α-L-Rhamnosidase) [%] | inhibition at 100 µM (β-Glucuronidase) [%] | IC50 (β-Glucuronidase) [µM] |
| --- | --- | --- | --- | --- | --- | --- | --- | --- | --- | --- | --- |
| OCCC[C@@H](O)CCCCCCCCC[C@H]1N[C@@H](CO)[C@@H](O)[C@@H]1O [2-epi-3, (2S,3R,4R,5R)-2-hydroxymethyl-3,4-dihydroxyl-5-((10R)-10,13-(dihydroxyl)dec-1-yl) pyrrolidine] | 0 | > 100 | > 100 | 0 | > 100 | 0 | > 100 | 3.8 | 3.3 | 5.2 | > 100 |
| OCCC[C@H](O)CCCCCCCCC[C@@H]1N[C@@H](CO)[C@H](O)[C@H]1O [ent-3, (2S,3S,4S,5S)-2-hydroxymethyl-3,4-dihydroxyl-5-((10S)-10,13-(dihydroxyl)dec-1-yl) pyrrolidine] | 0.3 | > 100 | > 100 | 2.2 | > 100 | 0 | > 100 | 0 | 13.3 | 2.3 | > 100 |
| OCCC[C@@H](O)CCCCCCCCC[C@@H]1N[C@@H](CO)[C@H](O)[C@H]1O [ent-10’-epi-3] | 12.2 | > 100 | > 100 | 1.8 | > 100 | 2.0 | > 100 | 6.1 | 1.8 | 14.9 | > 100 |
| OCCC[C@@H](O)CCCCCCCCC[C@@H]1N[C@@H](CO)[C@@H](O)[C@H]1O [ent-3,10-di-epi-3] | 0 | > 100 | > 100 | 0 | > 100 | 2.3 | > 100 | 0 | 11.4 | 14.9 | > 100 |
| OCCC[C@@H](O)CCCCCCCCC[C@H]1N[C@H](CO)[C@@H](O)[C@@H]1O [compound 3, (2R,3R,4R,5R)-2-hydroxymethyl-3,4-dihydroxyl-5-((10R)-10,13-(dihydroxyl)dec-1-yl)pyrrolidine] | 0 | > 100 | > 100 | 2.5 | > 100 | 1.7 | > 100 | 3.8 | 6.1 | 18.4 | > 100 |
| OCCC[C@H](O)CCCCCCCCC[C@H]1N[C@H](CO)[C@@H](O)[C@@H]1O [10’-epi-3, (2R,3R,4R,5R)-2-hydroxymethyl-3,4-dihydroxyl-5-((10S)-10,13-(dihydroxyl)dec-1-yl) pyrrolidine] | 0 | > 100 | > 100 | 0 | > 100 | 0 | > 100 | 36.5 | 4.7 | 17.2 | > 100 |
| OCCCC(O)CCCCCCCCCC1NC(CO)C(O)C1O [2,10-di-epi-3, (2S,3R,4R,5R)-2-hydroxymethyl-3,4-dihydroxyl-5-((10S)-10,13-(dihydroxyl)dec-1-yl) pyrrolidine] | 0 | > 100 | > 100 | 0.32 | > 100 | 0 | > 100 | 6.8 | 4.7 | 1.7 | > 100 |
| OCCC[C@H](O)CCCCCCCCC[C@@H]1N[C@@H](CO)[C@@H](O)[C@H]1O [ent-3-epi-3, (2S,3R,4S,5S)-2-hydroxymethyl-3,4-dihydroxyl-5-((10S)-10,13-(dihydroxyl)dec-1-yl) pyrrolidine] | 0 | > 100 | > 100 | 1.3 | > 100 | 0 | > 100 | 0 | 15.2 | 0 | > 100 |
